The test system of one experiment is A549 tumor. In words: A549 non-small cell lung tumor subcutaneous xenograft. Conditions: RDV, SDV […], 4 i.p. injections 7 days apart; conjugates […] agent and 250 μg/dose antibody. It counts as in vivo, nude mice. On the procedure:
Navelbine is a chemotherapy compound indicated in non-small cell cancer of the lung and in metastatic cancer of the breast. […] For this study, 5·10^6 A549 cells were grafted subcutaneously on the right flank of the mouse. Five days after the cell graft, the tumors are measurable and the treatments with MAb and/or navelbine are commenced. The MAb dose is always 250 μg/dose/mouse, twice per week, intra-peritoneally. Concerning navelbine, it will be administered at the maximum dose tolerated by the mouse or 10 mg/kg, intraperitoneally. For this treatment three injections will be carried out at intervals of 7 days. During the coadministrations, the two products are mixed before injection.
For this study, nude mice are grafted s.c. with 5·10^6 A549 cells. Five days after the cell graft, the tumors are measured and a homogeneous batch of mice in terms of tumor volume is formed. Starting from this batch, groups of 6 mice are generated at random.
To do this, 5·10^6 A549 cells were implanted subcutaneously in nude mice. Five days after this implantation, the tumors were measured and groups of 6 mice were formed. […] This granule is essential to the establishment of any E2-dependent human tumor in this animal species.
These conjugates are administered according to the same modes as the groups given the chemotherapy compounds alone; • the animals of the control batch are given injections of PBS, administered according to the same frequency.
The weight of the mice and the tumor volume are evaluated twice a week. The tumor volumes are calculated according to the formula: ½ (length·width·height).

The test system of the next experiment is P388 murine leukemia. In words: P388 murine leukemia grafted intravenously, survival (T/C). It counts as in vivo, CDF1 mice. As to the method:
The compound is administered intraperitoneally in a single dose on day 1. The protocol for this test is described by Kruczynski A. et al., Cancer Chemotherapy and Pharmacology, 1998, volume 41, pages 437 to 447.
Conventionally, the in vivo activity of cytotoxic compounds is expressed by the T/C at a dose expressed in mg per kg. The T/C corresponds to the ratio, multiplied by 100, of the median of the survival time of the treated animals to the median of the survival time of the control animals.
The protocol for this test is described by Kruczynski A. et al., Cancer Chemotherapy and Pharmacology, 1998, volume 41, pages 437 to 447.
To do this, a total of 10^6 P388 murine leukemia cells were implanted i.v. in CDF1 mice on day 0. After randomization of the animals in cages for treatment with each alkaloid and control cages, the compounds were administered i.p. on day 1.
Conventionally, the in vivo activity of compounds is expressed by the increase in survival time. The survival time is expressed by the T/C at a dose expressed in mg per kg (mg/kg). The T/C corresponds to the ratio, multiplied by 100, of the median of the survival time of the treated animals to the median of the survival time of the control animals. In agreement with the standard criteria of the NCl, a T/C of 120 corresponds to a minimum level for concluding that activity is present.
A T/C below 75 expresses toxicity of the test compound at the dose administered.

The subject of experiment [1] is MCF-7 cells. In words: Apoptosis of MCF-7 cells (Annexin V-FITC/DAPI flow cytometry). It counts as cell-based, human. The note with it: doxorubicin 2 μg/ml, 24 hours, IGF-I 50 ng/ml. As to the method: As indicated above, IGF-IR is capable of conferring protection against apoptosis when it is overexpressed on the surface of cells. […] In these experiments, the MCF-7 cells are inoculated at 2·10^4/cm^2 in Petri dishes and cultured for 24 h in RPMI without phenol red supplemented with 10% of fetal calf serum (FCS). The cells are then washed twice with PBS and put back into culture in medium with 0% FCS. They are allowed an adaptation time of 10 minutes at 37° C. before the addition of the antibodies at 10 μg/ml. After an extra 10 minutes at 37° C., recombinant IGF-I (Sigma) is added to the culture medium to a final concentration of 50 ng/ml. The cells are left at 37° C. again for one hour in order to allow the attachment of the antibodies and of the IGF-I. Finally, the doxorubicin (Sigma) is added to the culture medium at 2 μg/ml and the cells are incubated for 24 hours at 37° C.
The experiments have likewise been conducted with navelbine at a concentration of 10 μg/ml.
The analysis of the cell viability is carried out by flow cytometric analysis after labeling with the annexin V-FITC (20 minutes, 4° C.) and DAPI (2 μg/ml). The percentage of dead cells considered is the labeled population Annexin+/DAPI+. The antibody 5C2 is used as a control isotype.
(In general: In flow cytometry, cells or beads pass a laser one at a time.)

Experiment [2] concerns MCF-7 cells. Description: Cell cycle of MCF-7 cells with IGF1. It is filed as cell-based, human. As to the method: The inhibition of the cell growth observed in vitro on the line MCF-7 should be manifested by an effect on the cell cycle. In order to reply to this question, 4·10^5 cells are inoculated into 6-well plates. […] After incubation for 24 hours, the cells are recovered for the study of the cell cycle.

Where [3] appears, read: dose 0.63 mg/kg i.p. single dose day 1, T/C = median survival treated/control ×100, below 75 = toxicity.
[4] abbreviates: dose 1.25 mg/kg i.p. single dose day 1.
[5] abbreviates: dose 5 mg/kg i.p. single dose day 1.
Where [6] appears, read: dose 10 mg/kg i.p. single dose day 1.
Setting [7] is: after addition of IGF1, 24 hours ([…] in the absence of IGF1).

As to `CCC1CC2CN(CCc3c([nH]c4ccccc34)[C@@](C(=O)OC)(c3cc4c(cc3OC)N(C)[C@H]3C(O)(C(=O)OC)[C@H](OC(C)=O)[C@]5(CC)C=CCN6CC[C@]43[C@@H]65)C2)C1` (stereo partly drawn) [4′-R-deoxyvinblastine, 4′-R deoxyvinblastine], the “A549 tumor growth, deoxyvinblastines alone or coupled to h7C10” value with A549 tumor is given as “evolve in the same manner as the control group”. The T/C stood at 100 in the experiment on P388 murine leukemia (setting [3]); 100 in the experiment on P388 murine leukemia (setting [4]); 143 in the experiment on P388 murine leukemia (setting [5]); 200 in the experiment with P388 murine leukemia (setting [6]); 214 in the experiment on P388 murine leukemia (dose 20 mg/kg i.p. single dose day 1); 43 in the experiment with P388 murine leukemia (dose 40 mg/kg i.p. single dose day 1).

On to `CC[C@@H]1C[C@@H]2CN(CCc3c([nH]c4ccccc34)[C@@](C(=O)OC)(c3cc4c(cc3OC)N(C)[C@H]3[C@@](O)(C(=O)OC)[C@H](OC(C)=O)[C@]5(CC)C=CCN6CC[C@]43[C@@H]65)C2)C1` [4′-S-deoxyvinblastine, 4′-S deoxyvinblastine], for which, in the experiment on A549 tumor, the “A549 tumor growth, deoxyvinblastines alone or coupled to h7C10” value is “evolve in the same manner as the control group”. Besides, the T/C turned out to be 114 in the experiment on P388 murine leukemia (setting [3]), 143 in the experiment with P388 murine leukemia (setting [4]), 100 in the experiment on P388 murine leukemia (setting [5]) and 57 with P388 murine leukemia (setting [6]).

Take `COc1cccc2c1C(=O)c1c(O)c3c(c(O)c1C2=O)C[C@@](O)(C(=O)CO)C[C@@H]3O[C@H]1C[C@H](N)[C@H](O)[C@H](C)O1` [doxorubicin, reference compound]: in the experiment on MCF-7 cells [1], the “apoptosis, percentage of MCF-7 cells” value worked out at 8%.

For the compound `CC[C@]1(O)C[C@@H]2CN(CCc3c([nH]c4ccccc34)[C@@](C(=O)OC)(c3cc4c(cc3OC)N(C)[C@H]3[C@@](O)(C(=O)OC)[C@H](OC(C)=O)[C@]5(CC)C=CCN6CC[C@]43[C@@H]65)C2)C1` [vinblastine, reference compound], the T/C in the experiment with P388 murine leukemia (setting [3]) came to 114; in the experiment on P388 murine leukemia (setting [4]), 114; in the experiment with P388 murine leukemia (setting [5]), 143; with P388 murine leukemia (setting [6]), 57.

On to `CC[C@]1(O)C[C@H]2CN(CCc3c([nH]c4ccccc34)[C@@](C(=O)OC)(c3cc4c(cc3OC)N(C=O)[C@H]3[C@@](O)(C(=O)OC)[C@H](OC(C)=O)[C@]5(CC)C=CCN6CC[C@]43[C@@H]65)C2)C1` [vincristine, reference compound], for which the T/C in the experiment on P388 murine leukemia (setting [3]) was 114; with P388 murine leukemia (setting [4]) it was 143; with P388 murine leukemia (setting [5]), 100; in the experiment on P388 murine leukemia (setting [6]) it was 57.

With “IGF1: insulin-like growth factor 1, native ligand of IGF-IR”, the “proportion of MCF-7 cells in G2/M phase” value with MCF-7 cells [2] (after addition of IGF1, 24 hours (4% in the absence of IGF1)) is recorded as 12.7%. Further, in the experiment with MCF-7 cells [2] (setting [7]), the “proportion of MCF-7 cells in G0/G1 phase” value is listed as 56.3% and the “proportion of MCF-7 cells in S phase” value worked out at 31%.

For the origin of these results see patent US8101180B2, “Anti-IGF-IR and/or anti-insulin/IGF-I hybrid receptors antibodies and uses thereof” (Pierre Fabre Medicament, priority 2002, dated 2012).
